According to patent US7485655B2, “2-Aminothiazole allosteric enhancers of A1 adenosine receptors” (University of Virginia Patent Foundation, priority 2002, dated 2009):

Tests used:
[1] = system: chicken chorioallantoic membrane (CAM); assay: CAM assay, drug applied daily on filter paper disc; format: in vivo; conditions: for angiogenic response in the CAM (vessel density at edge of disk): 100 nM doses, 100 μl daily for 7 days on filter paper disk
human A3 receptor = molecular target: T1, human A3 receptor (Homo sapiens, UniProt P0DMS8); conditions: cited from earlier work
T1 sequence (P0DMS8 1-318): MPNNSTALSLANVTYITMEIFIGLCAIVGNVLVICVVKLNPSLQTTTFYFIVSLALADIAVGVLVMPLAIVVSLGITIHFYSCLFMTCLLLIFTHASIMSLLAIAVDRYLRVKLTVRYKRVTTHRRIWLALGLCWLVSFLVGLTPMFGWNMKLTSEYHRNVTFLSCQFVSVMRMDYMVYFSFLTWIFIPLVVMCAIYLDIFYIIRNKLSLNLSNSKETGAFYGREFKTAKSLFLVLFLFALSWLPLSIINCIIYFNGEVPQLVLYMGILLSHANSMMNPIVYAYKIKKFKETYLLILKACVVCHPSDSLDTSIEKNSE

[2] = system: chicken chorioallantoic membrane (CAM); assay: CAM assay, adenosine applied via Elvax pellets; format: in vivo; conditions: Elvax pellet with 3 mg adenosine, left in place seven days
Procedure: Fertile White Leghorn chicken eggs were obtained from Truslow Farms (Chesterfield, Mo.). Eggs were incubated at 37° for 7 days, then a 1.5 cm window was cut into each egg over the CAM. Pellets were applied to the CAMS and the windows closed with cellophane tape. Eggs were incubated until day 14 when the CAMS were fixed. […] The pellets were placed on the CAM where there were a few vessels present and were left in place for seven days. The CAMS then were fixed in 10% buffered formalin and vessels were counted under 20× magnification using a Nikon stereomicroscope. The quantitation of vascular number is presented as vascular density index VDI that was an adaptation of a method described by Harris-Hooker (Harris-Hooker et al., Neovascular Responses Induced by Cultured Aortic Endothelial Cells, J Cell. Phys., 114, 302-310, 1983). A plastic cover slip inscribed with 4, 5, 6, and 8 mm diameter concentric circles was centered over the adenosine pellet on the formalin-fixed CAM. The vascular density was judged by counting the numbers of the vessels which intersected the circles. This technique allowed counting of vessels down to 10-12 u in diameter. The positioning of the pellets on the CAM was randomized. […] Adenosine was delivered by other means as well.

rat mesentery = assay: Rat mesentery angiogenesis, chronic intraperitoneal infusion by Alzet osmotic pump; format: in vivo; conditions: chronic infusion via Alzet pumps into the peritoneal cavity of a rat
Procedure: Drug application into rat mesentery using infusion pumps. Alzet osmotic pumps were filled with drug or vehicle to a volume of 200 μl. The abdominal cavities of anesthetized 150 g Sprague-Dawley rats were incised and pumps implanted into the intraperitoneal cavity. The pumps delivered the drug at 1.0 μl/hr. After one week mesenteric samples were taken between vascular arcades along the length of the small bowel. Specimens were fixed and stained using a BS:lectin stain.
The chronic infusion was an advantage because the model is not an ischemic one, so steady long term administration of the PD 81,723 may help to augment the effects of lower concentrations of endogenous adenosine.

Compound: CCNC(=O)[C@H]1O[C@@H](n2cnc3c(N)ncnc32)[C@H](O)[C@@H]1O [NECA]
- angiogenic response in the CAM (vessel density at edge of disk) [1]: positive angiogenic response

Compound: OC[C@H]1O[C@@H](n2cnc3c(NC4CCCC4)ncnc32)[C@H](O)[C@@H]1O [CPA, Cyclopentyladenosine]
- stimulation of angiogenesis in the CAM at low dose ([1]; 20 nM CPA alone): did not stimulate angiogenesis
- angiogenic response in the CAM (vessel density at edge of disk) [1]: positive angiogenic response

Compound: CC(C)N(C)c1nc2c(N[C@@H]3CC4CC3CC4O)ncnc2n1C (some centres unmarked) [WRC-0571]
- block of C17-stimulated angiogenesis in the CAM ([1]; C17 plus WRC-0571): blocked
- block of angiogenic effect of CPA in the CAM ([1]; CPA 100 nM with 1 μM WRC-0571): completely blocked
- block of the effects of PD on angiogenesis in the CAM ([1]; PD plus WRC-0571): completely blocked
- block of the effects of endogenous adenosine in the CAM ([1]; in vivo): blocked the effects of endogenous adenosine

Compound: CCNC(=O)[C@H]1O[C@@H](n2cnc3c(N)nc(NCCc4ccc(CCC(=O)O)cc4)nc32)[C@H](O)[C@@H]1O [CGS21680]
- angiogenic response in the CAM (vessel density at edge of disk) [1]: No angiogenic response

Compound: CCOC(=O)C1=C(C)NC(c2ccccc2)=C(C(=O)OCc2ccccc2)C1C#Cc1ccccc1 (centres unmarked) [MRS1191]
- selectivity for the human A3 over the A1 receptor (human A3 receptor): > 1300 fold

Compound: CCCn1c(=O)c2[nH]c(-c3ccc(OCC(=O)NCCN)cc3)nc2n(CCC)c1=O [XAC, xanthine amine congener]
- effect on baseline angiogenesis in the CAM ([1]; nonselective antagonist alone, filter paper disk, four eggs): did not inhibit baseline angiogenesis

Compound: CNC(=O)[C@H]1O[C@@H](n2cnc3c(NCc4cccc(I)c4)ncnc32)[C@H](O)[C@@H]1O [m-MECA, N^6-iodobenzyl-5′-N-methyl-carboxamidoadenosine]
- angiogenic response in the CAM (vessel density at edge of disk) [1]: positive angiogenic response

Compound: Nc1ncnc2c1ncn2[C@@H]1O[C@H](CO)[C@@H](O)[C@H]1O [Adenosine]
- angiogenesis in the windowed CAM model (vascular density index) [2]: stimulated angiogenesis

Compound: Cc1sc(N)c(C(=O)c2cccc(C(F)(F)F)c2)c1C [PD 81,723]
- stimulation of angiogenesis in the CAM ([1]; 100 μM on filter paper disc, versus vehicle, no applied agonist): 10%
- angiogenesis in mature mammalian animal model (rat mesentery): Stimulation of angiogenesis
